Target: T1, Sphingosine kinase 2 (Homo sapiens, UniProt Q9NRA0)
T1 sequence (Q9NRA0 whole entry): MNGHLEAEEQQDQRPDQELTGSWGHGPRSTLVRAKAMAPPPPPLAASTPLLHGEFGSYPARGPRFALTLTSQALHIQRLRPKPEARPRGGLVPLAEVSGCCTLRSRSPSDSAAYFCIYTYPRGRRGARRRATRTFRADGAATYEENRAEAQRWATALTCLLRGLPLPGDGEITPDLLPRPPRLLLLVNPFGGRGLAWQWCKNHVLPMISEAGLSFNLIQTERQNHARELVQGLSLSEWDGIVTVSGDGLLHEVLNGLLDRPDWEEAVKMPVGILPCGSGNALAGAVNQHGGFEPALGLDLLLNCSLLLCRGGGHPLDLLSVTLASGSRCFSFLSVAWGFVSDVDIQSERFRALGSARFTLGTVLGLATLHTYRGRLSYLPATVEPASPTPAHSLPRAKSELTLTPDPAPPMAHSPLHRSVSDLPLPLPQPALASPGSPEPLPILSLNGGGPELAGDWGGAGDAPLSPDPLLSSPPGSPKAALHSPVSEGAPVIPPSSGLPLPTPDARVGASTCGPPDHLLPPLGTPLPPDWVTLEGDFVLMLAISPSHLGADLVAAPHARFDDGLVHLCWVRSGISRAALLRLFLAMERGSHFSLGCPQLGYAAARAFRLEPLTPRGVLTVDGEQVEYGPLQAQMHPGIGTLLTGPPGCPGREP

## O=S(=O)(Cc1cc(OCc2ccc(CN3CCC[C@@H]3CO)cc2)cc(C(F)(F)F)c1)c1ccccc1
  IC50: > 10 µM

Reference: ChEMBL document CHEMBL5154877, “Novel Sphingosine Kinase 1 Inhibitor Suppresses Growth of Solid Tumor and Inhibits the Lung Metastasis of Triple-Negative Breast Cancer” (J Med Chem, 2022)
